# Test results published in patent US7235379B2, “Method and medium for the detection/identification of microorgranisms with esterase activity” (Bio Merieux, priority 2000, dated 2007).
# “And” between values parts separate entries of the source, which are not always exact repeats. Identical values can stand only once. Counter-ions that a name gives are not always drawn. Like-named read-outs stand apart in the source and are kept apart here.
# Assays:
# [1] = system: Salmonella arizonae 018; assay: Ex.2 colony coloration, 5-bromo-3-indolyl nonanoate, methanol/bile salts, MacConkey; format: cell-based; on intensity of coloration: key: 0: no activity; 0.1: trace of coloration; 0.5: very pale coloration; 1: distinct coloration of low intensity; 2: clear coloration of medium intensity; 3: intense coloration; 4: very intense coloration
# Procedure: The esterase substrate tested is 5-bromo-3-indolyl nonanoate. A 25 g/l stock solution of substrate is prepared in methanol to which 5 g/l of bile salts have been added. A sufficient volume is added to a supercooled MacConkey medium (without neutral red) to give a substrate concentration of 500 mg/l.
# [2] = system: Salmonella typhimurium 010; assay: Ex.1 colony coloration, 5-bromo-3-indolyl nonanoate, DMSO/Tween 20, MacConkey; format: cell-based
# [3] = system: Staphylococcus aureus 276; assay: Ex.3 colony coloration, 5-bromo-4-chloro-3-indolyl nonanoate 250 mg/l, DMSO/Tween 20; format: cell-based; further: key: 0: no activity; 0.1: trace of coloration; 0.5: very pale coloration; 1: distinct coloration of low intensity; 2: clear coloration of medium intensity; 3: intense coloration; 4: very intense coloration
# [4] = system: Salmonella spp. 017
# Procedure: The esterase substrate tested is 5-bromo-4-chloro-3-indolyl nonanoate. A 40 g/l stock solution of substrate is prepared in a mixture of 40% dimethyl sulfoxide and 60% Tween 20. A sufficient volume is added to a supercooled MacConkey medium (without neutral red) to give a substrate concentration of 250 mg/l.
# (§1) Microorganisms originating from the Applicant's collection were inoculated onto this medium from a 0.5 McFarland suspension by isolation in three quadrants. The dishes were incubated at 37° C. for 48 hours. The colonies formed were examined visually after 24 and 48 hours of incubation. The coloration of these colonies and the intensity of this coloration were noted.
# (§2) Note: In the above Examples, the numbers following the strains correspond to the number of each strain referenced in the Applicant's collection. The intensity of coloration corresponds to an arbitrary scale defined as follows: […]
# [5] = system: Acinetobacter calcoaceticus 034; assay: Ex.1 colony coloration, 5-bromo-3-indolyl nonanoate, DMSO/Tween 20, MacConkey; format: cell-based; on intensity of coloration: key: 0: no activity; 0.1: trace of coloration; 0.5: very pale coloration; 1: distinct coloration of low intensity; 2: clear coloration of medium intensity; 3: intense coloration; 4: very intense coloration
# [6] = system: Pseudomonas aeruginosa 165; assay: as above; format: cell-based
# [7] = system: Salmonella enteritidis 002; assay: as above; format: cell-based
# [8] = system: Salmonella typhi 118
# Procedure: (§3) The esterase substrate tested is 5-bromo-3-indolyl nonanoate. A 40 g/l stock solution of substrate is prepared in a mixture of 40% dimethyl sulfoxide and 60% Tween 20. A sufficient volume is added to a supercooled MacConkey medium (without neutral red) to give a substrate concentration of 500 mg/l.
# as §1, §2
# [9] = system: Salmonella spp. 017; remark: listed apart in the source
# Procedure: as §3, §1, §2
# [10] = system: Salmonella paratyphi A 006
# Procedure: as §3, §1, §2
smiles,measurement,setting,value
"CCCCC(CC)CCC(CC(C)C)OS(=O)(=O)O (centres unmarked) [Tergitol 4, 7-ethyl-2-methyl-4-undecanoate hydrogensulfate or its sodium salt]",color,"[1]; 2 ml/l, 24 h",gray
same,intensity of coloration,"[1]; 2 ml/l, 24 h",2.5
same,color,"[1]; 2 ml/l, 48 h",gray
same,intensity of coloration,"[1]; 2 ml/l, 48 h",3
same,color,"[1]; 4 ml/l, 24 h",gray
same,intensity of coloration,"[1]; 4 ml/l, 24 h",2
same,color,"[1]; 4 ml/l, 48 h",gray
same,intensity of coloration,"[1]; 4 ml/l, 48 h",2.5
same,color,"[1]; 8 ml/l, 24 h",gray
same,intensity of coloration,"[1]; 8 ml/l, 24 h",0.5
same,color,"[1]; 8 ml/l, 48 h",gray
same,intensity of coloration,"[1]; 8 ml/l, 48 h",1.5
same,color,"[1]; 16 ml/l, 24 h",gray
same,intensity of coloration,"[1]; 16 ml/l, 24 h",0.5
same,color,"[1]; 16 ml/l, 48 h",gray
same,intensity of coloration,"[1]; 16 ml/l, 48 h",2
same,color,"[2]; 2 ml/l, 24 h",gray
same,intensity of coloration,"[2]; 2 ml/l, 24 h",2
same,color,"[2]; 2 ml/l, 48 h",gray
same,intensity of coloration,"[2]; 2 ml/l, 48 h",2.5
same,color,"[2]; 4 ml/l, 24 h",gray
same,intensity of coloration,"[2]; 4 ml/l, 24 h",3
same,color,"[2]; 4 ml/l, 48 h",gray
same,intensity of coloration,"[2]; 4 ml/l, 48 h",3
same,color,"[2]; 8 ml/l, 24 h",gray
same,intensity of coloration,"[2]; 8 ml/l, 24 h",3.5
same,color,"[2]; 8 ml/l, 48 h",gray
same,intensity of coloration,"[2]; 8 ml/l, 48 h",3.5
same,color,"[2]; 16 ml/l, 24 h",gray
same,intensity of coloration,"[2]; 16 ml/l, 24 h",3.5
same,color,"[2]; 16 ml/l, 48 h",gray
same,intensity of coloration,"[2]; 16 ml/l, 48 h",4
same,intensity of coloration,"[3]; 0.001 ml/l, 24 h",2
same,intensity of coloration,"[3]; 0.001 ml/l, 48 h",2
same,intensity of coloration,"[3]; 0.01 ml/l, 24 h",2
same,intensity of coloration,"[3]; 0.01 ml/l, 48 h",3
same,intensity of coloration,"[3]; 0.1 ml/l, 24 h",3
same,intensity of coloration,"[3]; 0.1 ml/l, 48 h",3
same,intensity of coloration,"[3]; 1 ml/l (1st col), 24 h",2
same,intensity of coloration,"[3]; 1 ml/l (1st col), 48 h",3
same,intensity of coloration,"[3]; 1 ml/l (2nd col), 24 h",2
same,intensity of coloration,"[3]; 1 ml/l (2nd col), 48 h",3
same,intensity of coloration,"[4]; 0.001 ml/l, 24 h",2
same,intensity of coloration,"[4]; 0.001 ml/l, 48 h",3
same,intensity of coloration,"[4]; 0.01 ml/l, 24 h",2
same,intensity of coloration,"[4]; 0.01 ml/l, 48 h",3
same,intensity of coloration,"[4]; 0.1 ml/l, 24 h",2
same,intensity of coloration,"[4]; 0.1 ml/l, 48 h",3
same,intensity of coloration,"[4]; 1 ml/l (1st col), 24 h",2
same,intensity of coloration,"[4]; 1 ml/l (1st col), 48 h",3
same,intensity of coloration,"[4]; 1 ml/l (2nd col), 24 h",2
same,intensity of coloration,"[4]; 1 ml/l (2nd col), 48 h",3
same,color,"[5]; 2 ml/l, 24 h",gray
same,intensity of coloration,"[5]; 2 ml/l, 24 h",2
same,color,"[5]; 2 ml/l, 48 h",gray
same,intensity of coloration,"[5]; 2 ml/l, 48 h",3
same,color,"[5]; 4 ml/l, 24 h",gray
same,intensity of coloration,"[5]; 4 ml/l, 24 h",3
same,color,"[5]; 4 ml/l, 48 h",gray
same,intensity of coloration,"[5]; 4 ml/l, 48 h",3
same,color,"[5]; 8 ml/l, 24 h",gray
same,intensity of coloration,"[5]; 8 ml/l, 24 h",3
same,color,"[5]; 8 ml/l, 48 h",gray
same,intensity of coloration,"[5]; 8 ml/l, 48 h",4
same,color,"[5]; 16 ml/l, 24 h",gray
same,intensity of coloration,"[5]; 16 ml/l, 24 h",0.5
same,color,"[5]; 16 ml/l, 48 h",gray
same,intensity of coloration,"[5]; 16 ml/l, 48 h",0.5
same,color,"[6]; 2 ml/l, 24 h",gray
same,intensity of coloration,"[6]; 2 ml/l, 24 h",3.5
same,color,"[6]; 2 ml/l, 48 h",gray
same,intensity of coloration,"[6]; 2 ml/l, 48 h",3.5
same,color,"[6]; 4 ml/l, 24 h",gray
same,intensity of coloration,"[6]; 4 ml/l, 24 h",4
same,color,"[6]; 4 ml/l, 48 h",gray
same,intensity of coloration,"[6]; 4 ml/l, 48 h",4
same,color,"[6]; 8 ml/l, 24 h",gray
same,intensity of coloration,"[6]; 8 ml/l, 24 h",4
same,color,"[6]; 8 ml/l, 48 h",gray
same,intensity of coloration,"[6]; 8 ml/l, 48 h",4
same,color,"[6]; 16 ml/l, 24 h",gray
same,intensity of coloration,"[6]; 16 ml/l, 24 h",4
same,color,"[6]; 16 ml/l, 48 h",gray
same,intensity of coloration,"[6]; 16 ml/l, 48 h",4
same,color,"[7]; 2 ml/l, 24 h",gray
same,intensity of coloration,"[7]; 2 ml/l, 24 h",2
same,color,"[7]; 2 ml/l, 48 h",gray
same,intensity of coloration,"[7]; 2 ml/l, 48 h",2
same,color,"[7]; 4 ml/l, 24 h",gray
same,intensity of coloration,"[7]; 4 ml/l, 24 h",3
same,color,"[7]; 4 ml/l, 48 h",gray
same,intensity of coloration,"[7]; 4 ml/l, 48 h",3
same,color,"[7]; 8 ml/l, 24 h",gray
same,intensity of coloration,"[7]; 8 ml/l, 24 h",3.5
same,color,"[7]; 8 ml/l, 48 h",gray
same,intensity of coloration,"[7]; 8 ml/l, 48 h",3.5
same,color,"[7]; 16 ml/l, 24 h",gray
same,intensity of coloration,"[7]; 16 ml/l, 24 h",3.5
same,color,"[7]; 16 ml/l, 48 h",gray
same,intensity of coloration,"[7]; 16 ml/l, 48 h",3.5
same,color,[8],gray
same,intensity of coloration,[8]; sodium salt,3 and 2 and 3.5
same,color,"[9]; 2 ml/l, 24 h",gray
same,intensity of coloration,"[9]; 2 ml/l, 24 h",1
same,color,"[9]; 2 ml/l, 48 h",gray
same,intensity of coloration,"[9]; 2 ml/l, 48 h",3
same,color,"[9]; 4 ml/l, 24 h",gray
same,intensity of coloration,"[9]; 4 ml/l, 24 h",1.5
same,color,"[9]; 4 ml/l, 48 h",gray
same,intensity of coloration,"[9]; 4 ml/l, 48 h",3.5
same,color,"[9]; 8 ml/l, 24 h",gray
same,intensity of coloration,"[9]; 8 ml/l, 24 h",2
same,color,"[9]; 8 ml/l, 48 h",gray
same,intensity of coloration,"[9]; 8 ml/l, 48 h",3
same,color,"[9]; 16 ml/l, 24 h",gray
same,intensity of coloration,"[9]; 16 ml/l, 24 h",1
same,color,"[9]; 16 ml/l, 48 h",gray
same,intensity of coloration,"[9]; 16 ml/l, 48 h",2
same,color,"[10]; 2 ml/l, 24 h",gray
same,intensity of coloration,"[10]; 2 ml/l, 24 h",2
same,color,"[10]; 2 ml/l, 48 h",gray
same,intensity of coloration,"[10]; 2 ml/l, 48 h",2
same,color,"[10]; 4 ml/l, 24 h",gray
same,intensity of coloration,"[10]; 4 ml/l, 24 h",2
same,color,"[10]; 4 ml/l, 48 h",gray
same,intensity of coloration,"[10]; 4 ml/l, 48 h",2.5
same,color,"[10]; 8 ml/l, 24 h",gray
same,intensity of coloration,"[10]; 8 ml/l, 24 h",3
same,color,"[10]; 8 ml/l, 48 h",gray
same,intensity of coloration,"[10]; 8 ml/l, 48 h",3
same,color,"[10]; 16 ml/l, 24 h",gray
same,intensity of coloration,"[10]; 16 ml/l, 24 h",2
same,color,"[10]; 16 ml/l, 48 h",gray
same,intensity of coloration,"[10]; 16 ml/l, 48 h",2
